In PubChem BioAssay AID732 (Emory University Molecular Libraries Screening Center, 2007):
Values joined by “and” are separate entries in the source; they are usually repeats but may differ in a detail not shown here. Identical values can stand only once. Active and inactive are the calls of the source. No rule for the calls is given here.

tested on: in vivo angiogenesis, blood vessel count; test: reduction of blood vessel formation in vivo – HTS, in vivo study (AID 732); conditions: active compounds read low;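 tested at 30 µM in the well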;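 also: zebrafish embryos dosed at one day post fertilization; 0% = reference inhibitor and 100% = plate mean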

| SMILES | vessel count % control |
| --- | --- |
| CCCC(CCC)C(=O)O | 89.7% (inactive) |
| Nc1ccc(S(=O)(=O)Nc2ccnn2-c2ccccc2)cc1 | 122% (inactive) |
| O=Nc1c(-c2c(O)[nH]c3ccccc23)[nH]c2ccccc12 | 15.6% |
| O=C(O)/C(=C/c1c(C(=O)O)[nH]c2cc(Cl)cc(Cl)c12)c1ccccc1 | 108% (inactive) |
| Cc1ccc(S(=O)(=O)N[C@@H](Cc2ccccc2)C(=O)CCl)cc1 | 97.1% (inactive) |
| CC1CC2C3CCC4=CC(=O)C=C[C@]4(C)[C@@]3(F)[C@@H](O)C[C@]2(C)[C@@]1(O)C(=O)CO (some centres undefined) | 129% (inactive) |
| NCCc1cnc[nH]1 | 93.3% (inactive) |
| CNCCC(Oc1ccccc1C)c1ccccc1 (centres undefined) | 122% (inactive) |
| CCCCCCCCCC(=O)NC(CN1CCOCC1)[C@H](O)c1ccccc1 (some centres undefined) | 74% (inactive) |
| CCCCCCCCCCCCCCC[C@H](O)[C@H](N)CO | 101% (inactive) |
| CC(N)c1cccc(Cl)c1Cl (centres undefined) | 89.7% (inactive) |
| CC[C@@H](CO)NC(=O)[C@@H]1C=C2c3cccc4[nH]cc(c34)C[C@H]2N(C)C1 | 121% (inactive) |
| C[C@](N)(Cc1ccc(O)cc1)C(=O)O | 116% (inactive) |
| CCCCCCCCCCCCCCCCOCC(COCC(F)(F)F)OP(=O)(O)OCO (centres undefined) | 109% (inactive) |
| COc1ccccc1N1CCN(CCCNc2cc(=O)n(C)c(=O)n2C)CC1 | 111% (inactive) |
| COc1cc(C(O)C(=O)O)ccc1O (centres undefined) | 92.5% (inactive) |
| O=C(O)[C@@H]1C[C@H](C(=O)O)N1 | 59.7% (inactive) |
| Oc1cc(O)c2c(c1)O[C@H](c1ccc(O)c(O)c1)[C@@H](O)C2 | 114% (inactive) |
| NC(=O)c1cc(N2CC2)c([N+](=O)[O-])cc1[N+](=O)[O-] | 107% (inactive) |
| CP(=O)(O)CCCN | 76.1% (inactive) |
| N=C(N)c1ccc(N)cc1 | 114% (inactive) |
| CN1CCN(C2=Nc3ccccc3Oc3ccc(Cl)cc32)CC1 | 123% (inactive) |
| CC1=C(C(=O)O)N2C(=O)[C@@H](NC(=O)C(N)C3=CCC=CC3)[C@H]2SC1 (some centres undefined) | 98.7% (inactive) |
| N=C(N)SCCc1ccc(CCSC(=N)N)cc1 | 72.6% (inactive) |
| CN1CC[C@@]2(C)c3cc(O)ccc3N(C)C12 (some centres undefined) | 95.1% (inactive) |
| N=c1c[n+](N2CCOCC2)[n-]o1 | 110% (inactive) |

| SMILES | vessel count % control |
| --- | --- |
| Cc1nc2sccn2c(=O)c1CCN1CCC(=C(c2ccc(F)cc2)c2ccc(F)cc2)CC1 | 68.8% (inactive) |
| C[C@@H](NC(=O)/C(C#N)=C/c1ccc(O)c(O)c1)c1ccccc1 | 128% (inactive) |
| Cc1ccc2[nH]c(O)c(-c3[nH]c4ccc(Br)cc4c3N=O)c2c1 | 33.9% |
| OC[C@H]1O[C@@H](n2cnc3c(N[C@H]4CC5CCC4C5)ncnc32)[C@H](O)[C@@H]1O (some centres undefined) | 77.1% (inactive) |
| Cn1cnc(CCN)c1 | 99.8% (inactive) |
| CCCn1c(=O)c2[nH]c(C3CCCC3)nc2n(CCC)c1=O | 78.9% (inactive) |
| Nc1nc(Cl)nc2c1ncn2[C@@H]1O[C@H](COP(=O)(O)OP(=O)(O)OP(=O)(O)O)[C@H](O)C1O (some centres undefined) | 107% (inactive) |
| CN1CCN(CC/C=C2/c3ccccc3Sc3ccc(S(=O)(=O)N(C)C)cc32)CC1 | 98.3% (inactive) |
| CC(=O)NCCc1c[nH]c2ccc(O)cc12 | 101% (inactive) |
| CCCCCCCCCCCCC/C=C/C(O)C(N)CO (centres undefined) | 112% (inactive) |
| CN(C)CC[C@@H](c1ccc(Br)cc1)c1ccccn1 | 102% (inactive) |
| CC(C)(C)[C@]1(O)CCN2C[C@H]3c4ccccc4CCc4cccc(c43)[C@@H]2C1 | 71.1% (inactive) and 90% (inactive) |
| COC(=O)C1=C(C)NC(C)=C(C(=O)OCCN(C)Cc2ccccc2)C1c1cccc([N+](=O)[O-])c1 (centres undefined) | 65.5% (inactive) |
| Oc1ccccc1O | 96.4% (inactive) |
| Clc1cccc(N2CCNCC2)c1 | 101% (inactive) |
| NC1CC1c1ccccc1 (centres undefined) | 94.1% (inactive) |
| Cc1c(CC(C)(C)C(=O)O)n(Cc2ccc(Cl)cc2)c2ccc(F)cc12 | 127% (inactive) |
| COc1ccccc1N1CCN(CCCCN2C(=O)c3ccccc3C2=O)CC1 | 117% (inactive) |
| CCCC1O[C@@H]2C[C@H]3[C@@H]4CCC5=CC(=O)C=C[C@]5(C)[C@H]4[C@@H](O)C[C@]3(C)[C@]2(C(=O)CO)O1 (some centres undefined) | 120% (inactive) |
| OC(CN1CCC(Cc2ccc(F)cc2)CC1)c1ccc(Cl)cc1 (centres undefined) | 61.6% (inactive) |
| O=C(O)CP(=O)(O)O | 79.8% (inactive) |
| NCCCP(=O)(O)O | 91.6% (inactive) |
| Cc1cc(N)c2ccccc2[n+]1CCCCCCCCCC[n+]1c(C)cc(N)c2ccccc21 | 100% (inactive) |
| CC(N)Cc1c[nH]c2ccc(O)cc12 (centres undefined) | 99.1% (inactive) |
| NC(C(=O)N[C@@H]1C(=O)N2C(C(=O)O)=C(Cl)CS[C@H]12)c1ccccc1 (some centres undefined) | 108% (inactive) |
| O=S(=O)(c1cccc2c(I)cccc12)N1CCCNCC1 | 114% (inactive) |

| SMILES | vessel count % control |
| --- | --- |
| CCCN1CCc2cccc3c2[C@H]1Cc1ccc(O)c(O)c1-3 | 89.9% (inactive) |
| NC(Cc1cccc(-c2ccccc2CP(=O)(O)O)c1)C(=O)O (centres undefined) | 106% (inactive) |
| O=c1[nH]c2cc(Cl)c(Cl)cc2[nH]c1=O | 109% (inactive) |
| CC[C@@]1(O)C(=O)OCc2c1cc1n(c2=O)Cc2cc3ccccc3nc2-1 | 0% (inactive) |
| Cn1ccnc1 | 109% (inactive) |
| Nc1nc2c(ncn2COCCO)c(=O)[nH]1 | 110% (inactive) |
| Cc1cccc(C2CN(C)CCc3c2cc(O)c(O)c3Cl)c1 (centres undefined) | 96.5% (inactive) |
| NCc1cc(=O)[nH]o1 | 110% (inactive) |
| O=c1[nH]cc(F)c(=O)[nH]1 | 111% (inactive) |
| COc1ccc2c(c1O)-c1cccc3c1[C@@H](C2)N(C)CC3 | 90.5% (inactive) |
| CN1CCc2cc(O)cc3c2[C@H]1Cc1ccc(O)c(O)c1-3 | 96.7% (inactive) |
| C=C[C@H]1CN2CCC1C[C@@H]2[C@@H](O)c1ccnc2ccc(OC)cc12 (some centres undefined) | 149% (inactive) |
| NC(=O)OCC(COC(N)=O)c1ccccc1 | 62.7% (inactive) |
| CN1C2CC(OC(=O)[C@H](CO)c3ccccc3)CC1C1OC12 (some centres undefined) | 79.7% (inactive) |
| O=S(=O)(O)C1CCNCC1 | 89.3% (inactive) |
| C1CCC(N=C(NC23CC4CC(CC(C4)C2)C3)N2CCOCC2)CC1 | 111% (inactive) |
| O=C(O)c1cccnc1C(=O)O | 88.1% (inactive) |
| NCCc1c[nH]c2ccc(C(N)=O)cc12 | 112% (inactive) |
| Oc1ccc(/C=C/c2cc(O)cc(O)c2)cc1 | 100% (inactive) |
| Nc1ccc(CCNc2ncnc3c2ncn3C2OC(CO)C(O)C2O)cc1 (centres undefined) | 110% (inactive) |
| COc1ccccc1N1CCN(CCN(C(=O)c2ccc(F)cc2)c2ccccn2)CC1 | 103% (inactive) |
| C[N+]1(C)CCN(c2ccccc2)CC1 | 89.3% (inactive) |
| NCCCCN | 106% (inactive) |
| CN(C(=O)Cc1ccc(Cl)c(Cl)c1)C(CN1CCCC1)c1cccc(OCC(=O)O)c1 (centres undefined) | 124% (inactive) |
| COC(=O)[C@@H]1[C@H]2C[C@H]3c4[nH]c5ccccc5c4CCN3C[C@@H]2CC[C@@H]1O | 95.4% (inactive) |
| CN1CCc2c(cc(O)c(O)c2Cl)C(c2cccc(Cl)c2)C1 (centres undefined) | 118% (inactive) |

| SMILES | vessel count % control |
| --- | --- |
| Nc1ncnc2c1ncn2[C@@H]1O[C@H](C(=O)NC2CC2)[C@H](O)C1O (some centres undefined) | 102% (inactive) |
| Cc1cc(O)c2c(c1)C(=O)c1cc(O)cc(O)c1C2=O | 87.5% (inactive) |
| N=S(=O)(O)Cc1noc2ccccc12 | 88.2% (inactive) |
| O=c1c(-c2ccc(O)cc2)coc2cc(O)ccc12 | 105% (inactive) |
| N=C1Sc2ccccc2C2=NCCCN12 | 104% (inactive) |
| NC(=O)C(=O)O | 125% (inactive) |
| O=C(O)C1=CCCNC1 | 114% (inactive) |
| O=C(O)/C=C/c1cnc[nH]1 | 108% (inactive) |
| CN1CCN(c2ccc3ccccc3n2)CC1 | 104% (inactive) |
| CN1CCC(=C2c3ccccc3C=Cc3ccccc32)CC1 | 0% (inactive) |
| CC(=O)/C(C)=N/O | 104% (inactive) |
| CN(Cc1cnc2nc(N)nc(N)c2n1)c1ccc(C(=O)N[C@@H](CCC(=O)O)C(=O)O)cc1 | 112% (inactive) |
| O=Nc1c(-c2c(O)[nH]c3ccc(Cl)cc23)[nH]c2ccccc12 | 88.2% (inactive) |
| CN1C2CCC1CC(OC(=O)c1c[nH]c3ccccc13)C2 (centres undefined) | 91.1% (inactive) |
| NC(=O)CI | 108% (inactive) |
| C[N+]1(C)C2CC(OC(=O)[C@H](CO)c3ccccc3)CC1C1OC12 (some centres undefined) | 105% (inactive) and 146% (inactive) |
| NC1(C(=O)O)CCCCC1 | 110% (inactive) |
| CCN1/C(=C/C(C)=O)Sc2ccc(OC)cc21 | 98% (inactive) |
| CC(O)C(O)[C@H]1CNc2nc(N)[nH]c(=O)c2N1 (some centres undefined) | 125% (inactive) |
| C[C@]12CC[C@H](OS(=O)(=O)O)CC1=CC[C@@H]1[C@@H]2CC[C@]2(C)C(=O)CC[C@@H]12 | 90.1% (inactive) |
| CC1=C[C@@H]2c3cccc4[nH]cc(c34)C[C@H]2N(C)C1 | 81.3% (inactive) |
| NC1(C(=O)O)CCc2cc(C(=O)O)ccc21 (centres undefined) | 79.6% (inactive) |
| CCCc1c(OCCCOc2ccc(OCC(=O)O)cc2)ccc(C(C)=O)c1O | 92.9% (inactive) |
| CC(C)(C)c1onc(OCP(=O)(O)O)c1CC(N)C(=O)O (centres undefined) | 88.9% (inactive) |
| NS(=O)(=O)c1cc2c(cc1Cl)NCNS2(=O)=O | 103% (inactive) |
| CC(C)C[C@H](N)CSSC[C@@H](N)CC(C)C | 39.2% (inactive) |
